# Data from ChEMBL document CHEMBL2413072, “Synthesis and in vitro anticancer studies of novel C-2 arylidene congeners of lantadenes” (2013).
# Tests used:
# Format in all cases: functional
# [1] = test system: MDA-MB-231; test: Growth inhibition of human MDA-MB-231 cells assessed as cell growth at 10^-8 M by sulforhodamine B assay; conditions: read-out: Activity
# [2] = test system: SF-268; test: Growth inhibition of human SF268 cells assessed as cell growth at 10^-8 M by sulforhodamine B assay; conditions: read-out: Activity
# [3] = test system: HCT-116; test: Growth inhibition of human HCT116 cells assessed as cell growth at 10^-8 M by sulforhodamine B assay; conditions: read-out: Activity
# [4] = test system: RXF 393; test: Growth inhibition of human RXF393 cells assessed as cell growth at 10^-6 M by sulforhodamine B assay; conditions: read-out: Activity
# [5] = test system: CAKI-1; test: Growth inhibition of human CAKI-1 cells assessed as cell growth at 10^-7 M by sulforhodamine B assay; conditions: read-out: Activity
# [6] = test system: A549; test: Growth inhibition of human A549/ATCC cells assessed as cell growth at 10^-6 M by sulforhodamine B assay; conditions: read-out: Activity
# [7] = test system: RPMI-8226; test: Growth inhibition of human RPMI8226 cells by sulforhodamine B assay
# [8] = test system: SK-MEL-2; test: Growth inhibition of human SK-MEL-2 cells assessed as cell growth at 10^-4 M by sulforhodamine B assay; conditions: read-out: Activity
# [9] = test system: HOP-92; test: Growth inhibition of human HOP92 cells assessed as cell growth at 10^-4 M by sulforhodamine B assay; conditions: read-out: Activity
# [10] = test system: HT-29; test: Growth inhibition of human HT-29 cells assessed as cell growth at 10^-7 M by sulforhodamine B assay; conditions: read-out: Activity
# [11] = test system: SK-MEL-5; test: Growth inhibition of human SK-MEL-5 cells assessed as cell growth at 10^-7 M by sulforhodamine B assay; conditions: read-out: Activity
# [12] = test system: T47D; test: Growth inhibition of human T47D cells by sulforhodamine B assay
# [13] = test system: SNB-19; test: Growth inhibition of human SNB19 cells assessed as cell growth at 10^-6 M by sulforhodamine B assay; conditions: read-out: Activity
# [14] = test system: MCF7; test: Growth inhibition of human MCF7 cells assessed as cell growth at 10^-7 M by sulforhodamine B assay; conditions: read-out: Activity
# [15] = test system: K562; test: Growth inhibition of human K562 cells assessed as cell growth at 10^-6 M by sulforhodamine B assay; conditions: read-out: Activity
# [16] = Growth inhibition of human HCC2998 cells by sulforhodamine B assay
# [17] = test system: HOP-62; test: Growth inhibition of human HOP62 cells assessed as cell growth at 10^-8 M by sulforhodamine B assay; conditions: read-out: Activity
# [18] = test system: A549; test: Growth inhibition of human A549/ATCC cells by sulforhodamine B assay
# [19] = test system: SF-295; test: Growth inhibition of human SF295 cells assessed as cell growth at 10^-7 M by sulforhodamine B assay; conditions: read-out: Activity
# [20] = test system: MOLT-4; test: Growth inhibition of human MOLT4 cells assessed as cell growth at 10^-7 M by sulforhodamine B assay; conditions: read-out: Activity
# [21] = test system: HOP-62; test: Growth inhibition of human HOP62 cells assessed as cell growth at 10^-6 M by sulforhodamine B assay; conditions: read-out: Activity
# [22] = test system: A549; test: Growth inhibition of human A549/ATCC cells assessed as cell growth at 10^-8 M by sulforhodamine B assay; conditions: read-out: Activity
# [23] = test system: NCI-H522; test: Growth inhibition of human NCI-H522 cells assessed as cell growth at 10^-4 M by sulforhodamine B assay; conditions: read-out: Activity
# [24] = test system: CAKI-1; test: Growth inhibition of human CAKI-1 cells assessed as cell growth at 10^-4 M by sulforhodamine B assay; conditions: read-out: Activity
# [25] = test system: SNB-75; test: Growth inhibition of human SNB75 cells assessed as cell growth at 10^-8 M by sulforhodamine B assay; conditions: read-out: Activity
# [26] = test system: A549; test: Growth inhibition of human A549/ATCC cells assessed as cell growth at 10^-4 M by sulforhodamine B assay; conditions: read-out: Activity
# [27] = test system: SF-268; test: Growth inhibition of human SF268 cells assessed as cell growth at 10^-4 M by sulforhodamine B assay; conditions: read-out: Activity
# [28] = test system: SW-620; test: Growth inhibition of human SW620 cells assessed as cell growth at 10^-8 M by sulforhodamine B assay; conditions: read-out: Activity
# [29] = test system: SR; test: Growth inhibition of human SR cells assessed as cell growth at 10^-8 M by sulforhodamine B assay; conditions: read-out: Activity
# [30] = test system: ACHN; test: Growth inhibition of human ACHN cells assessed as cell growth at 10^-8 M by sulforhodamine B assay; conditions: read-out: Activity
# [31] = test system: U-251; test: Growth inhibition of human U251 cells assessed as cell growth at 10^-4 M by sulforhodamine B assay; conditions: read-out: Activity
# [32] = test system: K562; test: Growth inhibition of human K562 cells assessed as cell growth at 10^-4 M by sulforhodamine B assay; conditions: read-out: Activity
# [33] = test system: SK-MEL-5; test: Growth inhibition of human SK-MEL-5 cells assessed as cell growth at 10^-4 M by sulforhodamine B assay; conditions: read-out: Activity
# [34] = test system: OVCAR-4; test: Growth inhibition of human OVCAR4 cells assessed as cell growth at 10^-7 M by sulforhodamine B assay; conditions: read-out: Activity
# [35] = test system: T47D; test: Growth inhibition of human T47D cells assessed as cell growth at 10^-6 M by sulforhodamine B assay; conditions: read-out: Activity
# [36] = test system: NCI-H23; test: Growth inhibition of human NCI-H23 cells by sulforhodamine B assay
# [37] = test system: MCF7; test: Growth inhibition of human MCF7 cells assessed as cell growth at 10^-4 M by sulforhodamine B assay; conditions: read-out: Activity
# [38] = test system: TK-10; test: Growth inhibition of human TK10 cells assessed as cell growth at 10^-7 M by sulforhodamine B assay; conditions: read-out: Activity
# [39] = Growth inhibition of human HCC2998 cells assessed as cell growth at 10^-7 M by sulforhodamine B assay; conditions: HCC 2998, read-out: Activity
# [40] = test system: SW-620; test: Growth inhibition of human SW620 cells by sulforhodamine B assay
# [41] = test system: SF-268; test: Growth inhibition of human SF268 cells assessed as cell growth at 10^-6 M by sulforhodamine B assay; conditions: read-out: Activity
# [42] = test system: T47D; test: Growth inhibition of human T47D cells assessed as cell growth at 10^-7 M by sulforhodamine B assay; conditions: read-out: Activity
# [43] = test system: HOP-92; test: Growth inhibition of human HOP92 cells assessed as cell growth at 10^-7 M by sulforhodamine B assay; conditions: read-out: Activity
# [44] = read-out: LC50 (the source's name)
# [45] = read-out: pLC50 (the source's name) (converted)
structure (smiles),measurement,setting,value
CC(C)=CC(=O)O[C@@H]1CC(C)(C)C[C@H]2C3=CC[C@@H]4[C@@]5(C)CCC(=O)C(C)(C)[C@@H]5CC[C@@]4(C)[C@]3(C)CC[C@@]12C(=O)O,growth at 0.01 µM,[1],96%
same,growth at 0.01 µM,[2],96%
same,growth at 0.01 µM,[3],98%
same,growth at 1 µM,[4],85%
same,growth at 0.1 µM,[5],93%
same,growth at 1 µM,[6],46%
same,GI50,[7]; read-out: GI50,1.46 µM
same,CC50,[7]; [44],> 100 µM
same,TGI,[7]; read-out: TGI,23.3 µM
same,GI50,[7]; read-out: pGI50 (converted),1.48 µM
same,CC50,[7]; [45],> 100 µM
same,TGI,[7]; read-out: pTGI (converted),23.4 µM
same,growth at 100 µM,[8],-69%
same,growth at 100 µM,[9],-50%
same,growth at 0.1 µM,[10],95%
same,growth at 0.1 µM,[11],91%
same,GI50,[12]; read-out: GI50,5.08 µM
same,CC50,[12]; [44],> 100 µM
same,TGI,[12]; read-out: TGI,> 100 µM
same,GI50,[12]; read-out: pGI50 (converted),5.13 µM
same,CC50,[12]; [45],> 100 µM
same,TGI,[12]; read-out: pTGI (converted),> 100 µM
same,growth at 1 µM,[13],87%
same,growth at 0.1 µM,[14],90%
same,growth at 1 µM,[15],75%
same,GI50,"[16]; HCC 2998, read-out: GI50",3.05 µM
same,CC50,"[16]; HCC 2998, read-out: LC50 (the source's name)",58.6 µM
same,TGI,"[16]; HCC 2998, read-out: TGI",13.4 µM
same,GI50,"[16]; HCC 2998, read-out: pGI50 (converted)",3.02 µM
same,CC50,"[16]; HCC 2998, read-out: pLC50 (the source's name) (converted)",58.9 µM
same,TGI,"[16]; HCC 2998, read-out: pTGI (converted)",13.5 µM
same,growth at 0.01 µM,[17],93%
same,GI50,[18]; read-out: GI50,0.797 µM
same,CC50,[18]; [44],> 100 µM
same,TGI,[18]; read-out: TGI,15.6 µM
same,GI50,[18]; read-out: pGI50 (converted),0.794 µM
same,CC50,[18]; [45],> 100 µM
same,TGI,[18]; read-out: pTGI (converted),15.5 µM
same,growth at 0.1 µM,[19],83%
same,growth at 0.1 µM,[20],100%
same,growth at 1 µM,[21],100%
same,growth at 0.01 µM,[22],93%
same,growth at 100 µM,[23],-20%
same,growth at 100 µM,[24],-2%
same,growth at 0.01 µM,[25],90%
same,growth at 100 µM,[26],-41%
same,growth at 100 µM,[27],-38%
same,growth at 0.01 µM,[28],100%
same,growth at 0.01 µM,[29],109%
same,growth at 0.01 µM,[30],97%
same,growth at 100 µM,[31],-49%
same,growth at 100 µM,[32],15%
same,growth at 100 µM,[33],-78%
same,growth at 0.1 µM,[34],97%
same,growth at 1 µM,[35],92%
same,GI50,[36]; read-out: GI50,3.96 µM
same,CC50,[36]; [44],> 100 µM
same,TGI,[36]; read-out: TGI,51.9 µM
same,GI50,[36]; read-out: pGI50 (converted),3.98 µM
same,CC50,[36]; [45],> 100 µM
same,TGI,[36]; read-out: pTGI (converted),52.5 µM
same,growth at 100 µM,[37],2%
same,growth at 0.1 µM,[38],93%
same,growth at 0.1 µM,[39],96%
same,GI50,[40]; read-out: GI50,4 µM
same,CC50,[40]; [44],> 100 µM
same,TGI,[40]; read-out: TGI,36.1 µM
same,GI50,[40]; read-out: pGI50 (converted),3.98 µM
same,CC50,[40]; [45],> 100 µM
same,TGI,[40]; read-out: pTGI (converted),36.3 µM
same,growth at 1 µM,[41],93%
same,growth at 0.1 µM,[42],96%
same,growth at 0.1 µM,[43],90%
